Literature values as cited in patent US20090030057A1, “Pharmaceutical composition of telmisartan” (priority 2005, published 2009).
Read-outs that look alike come from different tables or passages of the source.

solubility (in a strong acid (with the exception of hydrochloric acid)): sparingly soluble
solubility (in a strong base): soluble
solubility (in hydrochloric acid): insoluble
solubility (in water or an aqueous solution in the pH range of 3 to 9): practically insoluble
Compound: CCCc1nc2c(C)cc(-c3nc4ccccc4n3C)cc2n1Cc1ccc(-c2ccccc2C(=O)O)cc1 [Telmisartan, 4′-[2-n-propyl-4-methyl-6-(1-methylbenzimid-azol-2-yl)benzimidazol-1-ylmethyl]biphenyl-2-carboxylic acid]
